Values joined by “and” are separate entries in the source; they are usually repeats but may differ in a detail not shown here. Equal entries are not always repeated. Active and inactive are the calls of the source.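 The calls were made as follows: active = compounds giving half or more protection of infected cells from virus-caused growth loss, again on retest; inactive = the rest.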 Where a SMILES comes first, the peptide text is derived from it. The star is where a group is joined. Cbz = O=C(OCc1ccccc1)*
Tested on: CEM cells HIV-1 protection, formazan growth assay
Assay: NCI AIDS Antiviral Assay
Conditions: for IC50: measured here: growth of uninfected CEM cells
Procedure, shortened: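 Protection of CEM cells against HIV-1 measured as cell growth via soluble formazan read-out, with five concentrations tested on both infected and uninfected cells; failure to protect may reflect toxicity.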

CCCCCCc1cc2c(O)c(C(c3ccccc3)c3c(O)c4cc(CCCCCC)c(O)cc4oc3=O)c(=O)oc2cc1O
EC50: > 200 µM | IC50: 5.62 µM

COc1cc2c(cc1O)C(C)Cc1cc3c(cc1N(C)CC2)OCO3 (configuration not stated)
EC50: > 117 µM | IC50: 2.24 µM

Brc1cc(C2OCCCO2)ccc1OCc1ccccc1
EC50: > 53.7 µM | IC50: > 53.7 µM

COc1cc2c(cc1OC)C1Cc3sccc3CN1CC2 (configuration not stated)
outcome: inactive

O=C(O)CN1CCNCCN(CC(=O)O)CCN(CC(=O)O)CCNCC1
EC50: > 200 µM | IC50: 178 µM

O=C(O)C1C(C(=O)O)C2C3C4C1C1C2C3C41 (configuration not stated)
outcome: inactive

COP(=O)(OC)/C(=C/c1cnc[nH]1)NC=O
EC50: > 200 µM | IC50: > 200 µM

Oc1[nH]c2ccccc2c1N=Nc1nc(-c2ccc(Cl)c(Cl)c2)cs1
EC50: > 200 µM | IC50: 40.7 µM

O=S(=O)(c1ccc(I)cc1)c1ccc(I)cc1
outcome: inactive

COC(=O)C(CCS(=O)(=O)CC(=O)C(=O)Nc1cccc(C(C)=O)c1)C(=O)OC
outcome: inactive

CCOC(=O)C1C(=O)CC2c3nc4ccccc4cc3CN2C1=O (configuration not stated)
EC50: > 10 µM | IC50: > 10 µM

CCOC(=O)C(NC(=O)c1ccccc1)(N1CCN(c2cc3c(cc2F)c(=O)c(C(=O)O)cn3C2CC2)CC1)C(F)(F)F (configuration not stated)
EC50: > 200 µM | IC50: 20.4 µM

COC(=O)CC1(CNC(=O)OCc2ccccc2)OCCO1
EC50: > 200 µM | IC50: > 200 µM

CC[n+]1c(/C=C/c2cc(C(=O)OC)n3c2sc2ccccc23)sc2ccccc21
EC50: > 200 µM | IC50: 11 µM

C#CC(O)/C=C/C(O)CCCC(O)CC#CC(O)C#CCCCCC(O)/C=C/CCCCCC(=O)CCCCCCCCCCCCCC(O)C(O)C#CC(=O)O (configuration not stated)
EC50: > 50.1 µM | IC50: 28.8 µM

N#Cc1c(Sc2ccccc2N)cccc1Sc1ccccc1N
EC50: > 200 µM | IC50: > 200 µM

CC1(C)COC(c2ccc(CC(O)c3ccccc3)cc2)=N1 (configuration not stated)
EC50: > 200 µM | IC50: 41.7 µM

CS(=O)(=O)Nc1ccc2ccccc2c1
EC50: > 200 µM | IC50: 158 µM

Cn1c(=O)ccc2cc(C(=O)c3ccccc3)ccc21
EC50: > 191 µM | IC50: 39.8 µM

Cn1c(=O)c2ccccc2c2nc3ccccc3nc21
outcome: inactive

CC(=O)Oc1c(C(C)C)cc2c(c1OC(C)=O)C[C@@]1(C)OC(=O)CC(C)(C)C1(OC(C)=O)C=C2 (some centres not stated)
outcome: inactive

O=C1c2c(O)cc(O)cc2OC(c2ccc(O)cc2)C1C1C(=O)c2c(O)cc(O)cc2OC1c1ccc(O)cc1 (configuration not stated)
EC50: > 200 µM | IC50: 46.8 µM

CC1=C/C(=C(\c2ccc(N(C)C)cc2)c2ccc([N+](C)(C)C)cc2)C=CC1=[N+](C)C
outcome: inactive

CCCCS(=O)CCC(N)P(=O)(O)O (configuration not stated)
EC50: > 200 µM | IC50: > 200 µM

CC1=CCCC2C(C=O)(C1)CC(C)C2(CO)CC/C(=C/CO)CO (configuration not stated)
outcome: inactive

CCOC(=O)CCc1ccc(NC(=O)/C=C/c2ccc([N+](=O)[O-])o2)cc1
EC50: > 200 µM | IC50: 0.372 µM

O=C(NCCCCCN1CCC2(CCCCC2)CC1)C(c1ccccc1)C1CCCCC1 (configuration not stated)
EC50: > 200 µM | IC50: 5.75 µM

CSCCC(NOC(=O)Cc1ccccc1)P(=O)(O)c1ccccc1 (configuration not stated)
EC50: 195 µM | IC50: 240 µM

CSc1nc(NC2OCC(OC(C)=O)C(OC(C)=O)C2OC(C)=O)c2c(n1)OCC2=O (configuration not stated)
outcome: inactive

O=C(O)CCC(NC(=O)c1ccc(CNc2nc3ccccc3nc2C(=O)O)cc1)C(=O)O (configuration not stated)
EC50: > 200 µM | IC50: > 200 µM

COC(=O)C(Cc1ccccc1I)C1=CCC2(CC1)OCCO2 (configuration not stated)
EC50: > 200 µM | IC50: 49 µM

C/C(=C\C(=O)O)C(=O)N(C)c1ccccc1I
EC50: > 200 µM | IC50: > 200 µM

COC(=O)C1=C(C(=O)OC)SC(=Cc2ccccc2C=C2SC(C(=O)OC)=C(C(=O)OC)S2)S1
outcome: inactive

O=c1[nH]nc(Cc2ccc(Cl)cc2)n1O
EC50: > 200 µM | IC50: > 200 µM

Cn1cnc(/C=C/C#N)c1
EC50: > 200 µM | IC50: > 200 µM

O=c1onc2n1-c1cc(Cl)ccc1C(=S)N1CSCC21 (configuration not stated)
EC50: > 200 µM | IC50: 105 µM

c1ccc(/C2=N\OCCCOc3ccccc32)cc1
EC50: > 200 µM | IC50: > 200 µM

O=C(CC/C(CC(=O)c1ccc(Cl)cc1)=N/O)Nc1ccc(Cl)c(Cl)c1
EC50: > 437 µM | IC50: > 437 µM

COc1cc(C(=O)/C=C/c2ccc(OCCSCCCCCCCCCCSCCOc3ccc(/C=C/C(=O)c4cc(OC)c(OC)c(OC)c4)cc3)cc2)cc(OC)c1OC
EC50: > 151 µM | IC50: > 151 µM

O=S1c2ccccc2N=C(c2cccc3ccccc23)CC1c1cccc2ccccc12 (configuration not stated)
EC50: > 60.3 µM | IC50: > 60.3 µM

CC1=C(C(=O)Nc2ccc(Cl)c(C(=O)OC(C)C)c2)SCCO1
EC50: 0.398 µM | IC50: 74.1 µM

CC1(C)CCNc2ccccc2S1
EC50: > 229 µM | IC50: > 229 µM

Cc1nc2c(ncn2CCO)c(=O)[nH]1
EC50: > 200 µM | IC50: > 200 µM

N#C/C(=C/c1ccc[nH]1)P(=O)(O)O
EC50: > 1260 µM | IC50: 724 µM

COc1ccc(N=NN2CCCC2)cc1
EC50: > 200 µM | IC50: 15.5 µM

Cc1cc2c(cc1C)NC(=O)CC(c1ccccc1)=N2
EC50: > 200 µM | IC50: > 200 µM

CSC1SCC2C(=O)N(C)C(C(C)C)C(=O)OCC(NC(=O)c3cnc4ccccc4n3)C(=O)NC(C)C(=O)N(C)C1C(=O)N(C)C(C(C)C)C(=O)OCC(NC(=O)c1cnc3ccccc3n1)C(=O)NC(C)C(=O)N2C (configuration not stated)
EC50: > 0.12 µM | IC50: 0.000355 µM

NNC(=O)C1C2c3ccccc3C(c3ccccc32)C1C(=O)NN (configuration not stated)
EC50: > 200 µM | IC50: > 200 µM

C1C[S+]2CC[S+]1CC2
EC50: > 200 µM | IC50: > 200 µM

C1=CC=C(N=P(c2ccccc2)(c2ccccc2)c2ccccc2)CC=C1
outcome: inactive

CC1C(Cl)(Cl)C1(C)/C=C/C1C(C)(C)C1(Cl)Cl (configuration not stated)
EC50: > 200 µM | IC50: 91.2 µM

O=S1OCC2(CO1)COS(=O)OC2 (configuration not stated)
EC50: > 200 µM | IC50: 91.2 µM

CNCCOC(c1ccccc1)c1ccccc1C (configuration not stated)
EC50: > 200 µM | IC50: 93.3 µM and 25.1 µM

CNNc1ncnc2c1cnn2C
EC50: > 794 µM | IC50: > 794 µM

CCOC(=O)C(=O)Nc1c(C)cccc1C
EC50: > 1120 µM | IC50: > 1120 µM

CCOC(=O)C(C)NC(=O)NC12CC3CC(CC(F)(C3)C1)C2 (configuration not stated)
EC50: > 219 µM | IC50: > 200 µM

O=C1OCC/C1=C\c1ccc(O)cc1
EC50: > 1320 µM | IC50: 240 µM

Clc1c(Cl)c(Cl)c2c(nnn2C2CCCO2)c1Cl (configuration not stated)
EC50: > 200 µM | IC50: 33.1 µM

CC(C)CC(NC(=O)C(Cc1ccccc1)NC(=O)CNC(=O)CNC(=O)C(N)Cc1ccc(O)cc1)C(=O)NC1C(O)OC(CO)C(O)C1O (configuration not stated)
EC50: > 2190 µM | IC50: > 2190 µM

N=c1n(CC(=O)NC23CC4CC(CC(C4)C2)C3)c2ccccc2n1Cc1ccc(Cl)cc1
EC50: > 53.7 µM | IC50: 4.79 µM

NCCCSCC(=O)O
outcome: inactive

O=C1NC(CSSCC2NC(=O)N(c3ccccc3)C2=O)C(=O)N1c1ccccc1 (configuration not stated)
EC50: > 200 µM | IC50: 1.12 µM

Cc1cc([C@H](C#N)c2nc3ccccc3s2)nc(Cl)n1
EC50: > 15.1 µM | IC50: 1.05 µM

S=C(NCc1ccccc1-c1ccccc1)Nc1ccc(Br)cn1
EC50: > 2 µM | IC50: 0.38 µM

CC(C)OP(=O)(CP(=O)(OC(C)C)OC(C)C)OC(C)C.[CH3][Sn]([Br])([Br])[Br]
EC50: > 347 µM | IC50: > 347 µM

COc1cccc(/C=N/[N-]C(N)=O)c1[O-].[Cu+2].c1ccncc1
EC50: > 5.75 µM | IC50: > 5.75 µM

Oc1ccc(O)c(Sc2nnc(CCCCCCCCc3nnc(Sc4cc(O)ccc4O)o3)o2)c1
outcome: inactive

O=C(CC1Sc2ccccc2NC1=O)Nc1ccccc1[N+](=O)[O-] (configuration not stated)
EC50: > 724 µM | IC50: 70.8 µM

CC1CC(C)CC(NC2=NCCO2)C1 (configuration not stated)
EC50: > 200 µM | IC50: > 200 µM

CCC1CN2CCc3cc(OC)c(OC)cc3C2CC1CC1c2cc(OC)c(OC)cc2CCN1C(=O)C(N)Cc1ccccc1 (configuration not stated)
outcome: inactive

CCOC(=O)C(C)(C)C(OP(OCC)OCC)=C(C)C
EC50: > 589 µM | IC50: > 589 µM

CC(C)CCCC(C)C1CCC2[C@@H]3CCC4C[C@@H](CCCC(c5cc(Cl)c(O)c(C(=O)O)c5)c5cc(Cl)c(O)c(C(=O)O)c5)CC[C@]4(C)C3CC[C@]12C (some centres not stated)
EC50: 18.2 µM | IC50: 309 µM

CCOC(=O)CCC(NC(=O)C(CC(=O)OC)NC(=O)OCc1ccccc1)C(=O)NC(CC(=O)OC)C(=O)NC(CCC(=O)OCC)C(=O)NC(CC(=O)OC)C(=O)NC(CCC(=O)OCC)C(=O)NC(CC(=O)OC)C(=O)NC(CCC(=O)OCC)C(=O)NC(CC(=O)OC)C(=O)NC(CCC(=O)OCC)C(=O)NC(CC(=O)OCC)C(=O)OCC (configuration not stated) (Cbz-D(OMe)E(OEt)D(OMe)E(OEt)D(OMe)E(OEt)D(OMe)E(OEt)D(OMe)E(OEt)D(OEt)-OEt; configuration not given here)
EC50: > 50.1 µM | IC50: > 50.1 µM

Cc1cc(=O)n2nc(CN3CCCCC3)sc2n1
EC50: > 200 µM | IC50: 174 µM

CCOC(=O)c1nc2ccccc2nc1NCc1ccc(OC)cc1
EC50: > 138 µM | IC50: 70.8 µM

Cc1ccc(C(=O)OC[C@H]2CC[C@@H](n3cc(N(C)C4CCCCC4)c(=O)[nH]c3=O)O2)cc1
EC50: > 200 µM | IC50: 53.7 µM

Cc1cc(C=C2C(=O)NC(=S)NC2=O)c(C)n1-c1ccccc1
EC50: > 6.17 µM | IC50: > 6.17 µM

CC(C)(C)[Si](C)(C)OC1C(CC#N)C(CO)OC1n1ccc(=O)[nH]c1=O (configuration not stated)
EC50: > 200 µM | IC50: > 200 µM

COc1nn(Cc2ccccn2)c2ccc([N+](=O)[O-])cc12
EC50: > 200 µM | IC50: 135 µM

N#C/C(=C\c1ccc(C#N)cc1)C(=O)O
EC50: > 36.3 µM | IC50: > 36.3 µM

CN(C)c1cccc(NC2=NCCO2)c1
EC50: > 200 µM | IC50: 33.9 µM

O=C(NNC(=O)c1csc(NC(=S)NC2CCCCC2)n1)c1ccccc1
EC50: > 200 µM | IC50: 14.5 µM

O=c1cc(CCc2ccccc2)oc2c(O)ccc(O)c12
outcome: inactive

C=C1CN(S(=O)(=O)c2ccc(C)cc2)CCCN(CC(C)(C)C)CCCN(S(=O)(=O)c2ccc(C)cc2)C1
EC50: > 200 µM | IC50: 10.5 µM

[N-]=[N+]=Nc1ccc(CNc2cc(=O)[nH]c(=O)[nH]2)cc1
EC50: > 200 µM | IC50: > 200 µM

CCCN(CCCCC(NC(C)=O)C(=O)NCc1ccccc1)C(=O)NCCCl (configuration not stated)
EC50: > 589 µM | IC50: > 589 µM
